# “And” between values parts separate entries of the source, which are not always exact repeats. Equal entries are not always repeated.
# Assays:
# [1] = tested on: fluoroquinolone-resistant, methicillin-resistant Staphylococcus aureus (K950); assay: NZW rabbit keratitis model, corneal colony counts; format: in vivo; conditions: Example 11; for Log10 CFU/ml, Mean / Log10 CFU/ml, Median: count 3; for Log10 CFU/ml / CFU/ml: individual cornea; for CFU/ml: Inoculum = 1098 CFU/cornea
# Text: (§1) One purpose of the following experiments was to compare the efficacy of 1% Oligomer 2, 0.5% Oligomer 2, and 5% vancomycin in the treatment of a fluoroquinolone-resistant, methicillin-resistant Staphylococcus aureus infection in the NZW rabbit keratitis model with or without intact corneal epithelia.
# Nothing was done to the right eyes.
# as §1, with “0.25%” for “1%”, “with and without 0.005% benzalkonium chloride,” for “0.5% Oligomer 2,”, “epithelia. The 0.005% benzalkonium chloride has been added to try to increase the penetration of 0.25% Oligomer 2 through the corneal epithelium.” for “epithelia.”
# One purpose of the following experiments was to determine the efficacy of 0.25% Oligomer 4, with and without 200 μM Farnesol, and 200 μM Farnesol in the treatment of a fluoroquinolone-resistant and methicillin-resistant Staphylococcus aureus infection in the NZW rabbit keratitis model with or without intact corneal epithelia. The 200 μM Farnesol has been added to try to increase the efficacy and penetration of 0.25% Oligomer 4 through the corneal epithelium.
# [2] = NZW rabbit keratitis model, clinical evaluation (Total Ocular Score); conditions: for Chemosis / Conj. / Corneal Edema / Corneal Infiltrate / Discharge / Iritis / Total Score: Example 11, Oligomer 4 / Farnesol study; for Chemosis / Conj. / Corneal Edema / Corneal Infiltrate / Discharge / Iritis / Total Score / Total Ocular Score: individual eye; for Total Ocular Score: Example 12 data display
# Description: Fifteen rabbits were received from Myrtles' Rabbitry, Thompson Station, TN. The clinical isolate of fluoroquinolone-resistant, methicillin-resistant (MRSA) Staphylococcus aureus (K950) was subcultured on 5% sheep blood agar and incubated at 37° C. in 6% CO2 overnight. The next morning, the MRSA strain was suspended in sterile trypticase soy broth to a 0.5 McFarland Standard, containing approximately 5×10^8 cfu/ml of bacteria. The absorbance of the suspension was measured at 650 nm using a Beckman DU-70 spectrophotometer. OD readings of 0.07 corresponded to 5×10^8 cfu/ml of bacteria. This concentration was appropriately diluted in sterile trypticase soy broth to provide the inoculum of approximately 1,000 (1.0×10^3) cfu/eye in 25 μl. Colony counts were performed on the inoculum to determine the actual cfu inoculated. Following general anesthesia with ketamine and xylazine and topical anesthesia with proparacaine and prior to bacterial inoculation in the left eyes, 6 mm areas of the corneal epithelia was removed centrally with an Amoils epithelial scrubber. Nothing was done to the right eyes. The 15 rabbits were then inoculated intrastromally in both eyes with 25 μl of the bacterial dilution of approximately 10^3 cfu/eye of the bacteria. The bacterial inoculation of the left eyes was directly under the epithelial defect created by the Amoils epithelial scrubber. The epithelia were removed in the left corneas in order to determine whether this layer of the cornea is a barrier for Oligomer 2 penetration when compared to the right cornea with an intact epithelium. A colony count was done on the inoculum to determine the actual cfu inoculated. The rabbits were immediately treated with analgesia in the form of and intramuscular injection of ketoprofen, 1.5 mg/kg. After 4 hours, the 15 rabbits were divided into 4 treatment groups and one untreated control group sacrificed at the onset of therapy. Both eyes of each rabbit of the treatment groups were treated with one 37 μl drop of the coded solutions or control Saline or 1 drop of vancomycin from its dropper bottle. The Oligomer 2 concentrations were masked and labeled as 1 and 2. The masked concentrations were 1% Oligomer 2 and 0.5% Oligomer 2 but the specific concentrations of solutions were not known to the lab workers who carried out the experiment. The vancomycin and control (Tris-Buffered Saline) were not masked.
# Treatment was scheduled for every 15 minutes for 5 hours (21 total doses). However, PMX-1 and PMX-2 were exhausted after the 19th dose. Therefore, the actual treatment was 15 minutes for 4.5 hours (19 total doses). The 3 rabbits in group V were sacrificed 4 hours PI and large 9.5 mm buttons were removed from the corneas. These were placed in 1 ml of PBS and kept on ice. The corneal buttons were homogenized for 25 seconds on ice using the motorized homogenizer. After homogenization, colony counts were done on the homogenates using 5% sheep blood agar plates to determine the amount of bacteria contained in the corneas at the onset of therapy. Following the completion of therapy, the eyes were examined for clinical signs of infection. One hour after the final treatment, the treated rabbits (Groups I-IV) were sacrificed and large 9.5 mm buttons were removed from the corneas. These were placed in 1 ml of PBS and kept on ice. The corneal buttons were homogenized for 25 seconds on ice using the motorized homogenizer. After homogenization, colony counts were performed on the homogenates using 5% sheep blood agar plates to determine the amount of bacteria contained in the corneas after treatment. The next morning, the plates were counted and the number of cfu/eye of Staphylococcus aureus was determined for each cornea.
# Fifteen rabbits were received from Myrtles' Rabbitry, Thompson Station, TN.
# [3] = Example 11, abraded epithelium, count 3
# [4] = Example 12, Ker-3 and Ker-4 combined, abraded epithelium, count 6
# [5] = Example 11, intact epithelium, count 3
# [6] = Example 12, Ker-3 and Ker-4 combined, intact epithelium, count 6
smiles,measurement,setting,value
CC(C)=CCCC(C)=CCCC(C)=CCO [FARN-AE],"Log10 CFU/ml, Mean",[1]; abraded epithelium,6.8762 Log10 CFU/ml
same,"Log10 CFU/ml, Median",[1]; abraded epithelium,6.8893 Log10 CFU/ml
same,Log10 CFU/ml,[1]; abraded epithelium,6.889 Log10 CFU/ml and 6.823 Log10 CFU/ml and 6.916 Log10 CFU/ml
same,CFU/ml,[1]; abraded epithelium,7750000 CFU/ml and 6650000 CFU/ml and 8250000 CFU/ml
same,Chemosis,[2]; abraded epithelium,2.0 and 1.5 (2×)
same,Conj.,[2]; abraded epithelium,2.0 and 1.5 (2×)
same,Corneal Edema,[2]; abraded epithelium,2.0 and 1.0 (2×)
same,Corneal Infiltrate,[2]; abraded epithelium,1.0 (2×) and 0.5
same,Discharge,[2]; abraded epithelium,2.0 and 1.5 (2×)
same,Iritis,[2]; abraded epithelium,2.0 and 1.5 (2×)
same,Total Score,[2]; abraded epithelium,11.0 and 7.5 and 8.0
same,"Total Ocular Score, Mean",[2]; [3],8.83
same,"Total Ocular Score, Median",[2]; [3],8.00
same,"Total Ocular Score, Mean",[2]; [4],9.083
same,"Total Ocular Score, Median",[2]; [4],8.500
same,Total Ocular Score,"[2]; Ker-3, abraded epithelium",11.0 and 8.5 (2×)
same,Total Ocular Score,"[2]; Ker-4, abraded epithelium",11.0 and 7.5 and 8.0
CC(C)=CCCC(C)=CCCC(C)=CCO [FARN-IE],"Log10 CFU/ml, Mean",[1]; intact epithelium,7.418 Log10 CFU/ml
same,"Log10 CFU/ml, Median",[1]; intact epithelium,7.330 Log10 CFU/ml and 7.3304 Log10 CFU/ml
same,Log10 CFU/ml,[1]; intact epithelium,7.655 Log10 CFU/ml and 7.27 Log10 CFU/ml and 7.33 Log10 CFU/ml
same,CFU/ml,[1]; intact epithelium,45200000 CFU/ml and 18600000 CFU/ml and 21400000 CFU/ml
same,Chemosis,[2]; intact epithelium,1.5 (2×) and 1.0
same,Conj.,[2]; intact epithelium,1.5
same,Corneal Edema,[2]; intact epithelium,1.0 (2×) and 0.5
same,Corneal Infiltrate,[2]; intact epithelium,2.0 (2×) and 1.5
same,Discharge,[2]; intact epithelium,1.5 (2×) and 1.0
same,Iritis,[2]; intact epithelium,1.5 (2×) and 2.0
same,Total Score,[2]; intact epithelium,9.0 and 7.0 and 9.5
same,"Total Ocular Score, Mean",[2]; [5],8.500
same,"Total Ocular Score, Median",[2]; [5],9.000
same,"Total Ocular Score, Mean",[2]; [6],9.000
same,"Total Ocular Score, Median",[2]; [6],9.250
same,Total Ocular Score,"[2]; Ker-3, intact epithelium",10.0 (2×) and 8.5
same,Total Ocular Score,"[2]; Ker-4, intact epithelium",9.0 and 7.0 and 9.5

# Source: patent US20130065818A1, “Arylamide Compounds And Compositions And Uses Thereof” (POLYMEDIX, priority 2006, published 2013)
